Experimental data reported in patent US4593093A, “Acyl derivatives” (priority 1980, dated 1986).
Read-outs that look alike come from different tables or passages of the source.

How the values were obtained:
[1] = system: Staphylococcus epidermis; assay: Activity in vitro: minimum inhibitory concentration; assay type: cell-based
[2] = system: Proteus vulgaris; assay: as above; assay type: cell-based
[3] = system: Klebsiella pseumoniae; assay: as above; assay type: cell-based
[4] = system: Enterobacter cloacae; assay: as above; assay type: cell-based
[5] = system: Pseudomonas aeruginosa; assay: as above; assay type: cell-based
[6] = system: Escherichia coli; assay: as above; assay type: cell-based
[7] = system: Streptococcus pneumoniae; assay: as above; assay type: cell-based
[8] = system: Streptococcus faecalis; assay: as above; assay type: cell-based; conditions: Enterococcus faecalis
[9] = system: Proteus morganii; assay: as above; assay type: cell-based; conditions: Morganella morganii
[10] = Toxicity, LD50; conditions: in vivo
[11] = system: Streptococcus pyogenes; assay: Activity in vitro: minimum inhibitory concentration; assay type: cell-based
[12] = system: Proteus mirabilis; assay: as above; assay type: cell-based
[13] = system: Proteus rettgeri; assay: as above; assay type: cell-based; conditions: Providencia rettgeri
[14] = system: Proteus inconstans; assay: as above; assay type: cell-based; conditions: Providencia alcalifaciens
[15] = system: Serratia marcescens; assay: as above; assay type: cell-based
[16] = system: Streptococcus pyogenes; assay: Activity in vivo: survival of intraperitoneally infected mice; conditions: sc, 96 h; mice infected i.p. with Streptococcus pyogenes; s.c. twice, 1 h and 3 h after infection; survival on 4th day; read-out: CD50 (dosage at which 50% of the animals survive)
Protocol: (§1) Groups of 5 mice are infected intraperitoneally with an aqueous suspension of various pathogens. The test substance in physiological sodium chloride solution is administered subcutaneously twice, i.e. 1 hour and 3 hours after the infection. The number of surviving animals is determined on the 4th day. Various dosages are administered and that dosage at which 50% of the experimental animals survive (CD50, mg/kg) is determined by interpolation.

[17] = system: Haemophilus influenzae; assay: as above; conditions: sc, 96 h; mice infected i.p. with Haemophilus influenzae; s.c. twice, 1 h and 3 h after infection; survival on 4th day; read-out: CD50 (dosage at which 50% of the animals survive)
Protocol: as §1

[18] = system: Enterobacter cloacae; assay: as above; conditions: sc, 96 h; mice infected i.p. with Enterobacter cloacae; s.c. twice, 1 h and 3 h after infection; survival on 4th day; read-out: CD50 (dosage at which 50% of the animals survive)
Protocol: as §1

[19] = system: Escherichia coli; assay: as above; conditions: sc, 96 h; mice infected i.p. with Escherichia coli; s.c. twice, 1 h and 3 h after infection; survival on 4th day; read-out: CD50 (dosage at which 50% of the animals survive)
Protocol: as §1

[20] = system: Serratia marcescens; assay: as above; conditions: sc, 96 h, mice infected i.p. with Serratia marcescens strain 1, s.c. twice, 1 h and 3 h after infection, survival on 4th day, read-out: CD50 (dosage at which 50% of the animals survive)
Protocol: as §1

[21] = system: Pseudomonas aeruginosa; assay: as above; conditions: sc, 96 h; mice infected i.p. with Pseudomonas aeruginosa; s.c. three times, 1 h, 3 h and 5 h after infection; survival on 4th day; read-out: CD50 (dosage at which 50% of the animals survive)
Protocol: as §1
*Administered subcutaneously three times: 1 hour, 3 hours and 5 hours

[22] = system: Streptococcus viridans; assay: Activity in vitro: minimum inhibitory concentration; assay type: cell-based
[23] = system: Enterobacter aerogenes; assay: as above; assay type: cell-based; conditions: Klebsiella aerogenes
[24] = system: Staphylococcus aureus; assay: as above; assay type: cell-based
[25] = system: Citrobacter freundii; assay: as above; assay type: cell-based

Question: With `CO/N=C(\C(=O)N[C@@H]1C(=O)N2C(C(=O)[O-])=C(CSc3nnnn3C)CS[C@H]12)c1c[se]c(N)n1.[Na+]` [Product A, (6R, 7R)-7-[2-(2-amino-4-selenazolyl)-2-[(Z)-methoxyimino]-acetamido]-3-[[(1-methyl-1H-tetrazol-5-yl)-thio]methyl]-8-oxo-5-thia-1-azabicyclo[4.2.0]oct-2-ene-2-carboxylic acid sodium salt] as the compound, how does the MIC [1] read?
Answer: 0.8 µg/mL

Question: What about the MIC [2] of the same compound?
Answer: 0.78 µg/mL

Question: And the MIC ([3]; Klebsiella pseumoniae strain 1)?
Answer: 0.2 µg/mL

Question: What about the MIC ([3]; Klebsiella pseumoniae strain 2) of the same compound?
Answer: 0.05 µg/mL

Question: What about the MIC ([3]; Klebsiella pseumoniae strain 3) of the same compound?
Answer: 0.1 µg/mL

Question: And the MIC ([4]; Enterobacter cloacae strain 1)?
Answer: > 100 µg/mL

Question: And the MIC ([4]; Enterobacter cloacae strain 2)?
Answer: 0.8 µg/mL

Question: What about the MIC ([4]; Enterobacter cloacae strain 3) of the same compound?
Answer: 50 µg/mL

Question: And the MIC ([5]; Pseudomonas aeruginosa strain 1)?
Answer: 25 µg/mL

Question: What about the MIC ([5]; Pseudomonas aeruginosa strain 2) of the same compound?
Answer: 25 µg/mL

Question: What about the MIC ([5]; Pseudomonas aeruginosa strain 3) of the same compound?
Answer: 6.3 µg/mL

Question: And the MIC ([6]; Escherichia coli strain 1)?
Answer: 0.1 µg/mL

Question: What about the MIC ([6]; Escherichia coli strain 2) of the same compound?
Answer: 0.025 µg/mL

Question: What about the MIC ([6]; Escherichia coli strain 3) of the same compound?
Answer: 0.4 µg/mL

Question: What about the MIC ([6]; Escherichia coli strain 4) of the same compound?
Answer: 0.2 µg/mL

Question: And the MIC ([6]; Escherichia coli strain 5)?
Answer: 0.4 µg/mL

Question: And the MIC [7]?
Answer: 0.025 µg/mL

Question: And the MIC ([8]; Streptococcus faecalis strain 1)?
Answer: 100 µg/mL

Question: And the MIC ([8]; Streptococcus faecalis strain 2)?
Answer: > 100 µg/mL

Question: And the MIC [9]?
Answer: 0.1 µg/mL

Question: What about the LD50 ([10]; po) of the same compound?
Answer: > 5000 mg/kg

Question: What about the LD50 ([10]; sc) of the same compound?
Answer: > 4000 mg/kg

Question: And the MIC ([11]; Streptococcus pyogenes strain 1, read-out: Minimum inhibitory concentration)?
Answer: 0.025 µg/mL

Question: What about the MIC ([11]; Streptococcus pyogenes strain 2, read-out: Minimum inhibitory concentration) of the same compound?
Answer: ≤ 0.012 µg/mL

Question: What about the MIC ([12]; Proteus mirabilis strain 1) of the same compound?
Answer: 0.1 µg/mL

Question: What about the MIC ([12]; Proteus mirabilis strain 2) of the same compound?
Answer: 0.1 µg/mL

Question: And the MIC ([12]; Proteus mirabilis strain 3)?
Answer: 0.8 µg/mL

Question: And the MIC ([12]; Proteus mirabilis strain 4)?
Answer: 0.05 µg/mL

Question: What about the MIC ([12]; Proteus mirabilis strain 5) of the same compound?
Answer: 0.05 µg/mL

Question: What about the MIC [13] of the same compound?
Answer: 0.2 µg/mL

Question: And the MIC [14]?
Answer: 0.025 µg/mL

Question: What about the MIC ([15]; Serratia marcescens strain 1) of the same compound?
Answer: 0.4 µg/mL

Question: And the MIC ([15]; Serratia marcescens strain 2)?
Answer: 0.8 µg/mL

Question: And the MIC ([15]; Serratia marcescens strain 3)?
Answer: 0.1 µg/mL

Question: What about the ED50 [16] of the same compound?
Answer: 0.05 mg/kg

Question: And the ED50 [17]?
Answer: 1.5 mg/kg

Question: What about the ED50 [18] of the same compound?
Answer: 8.4 mg/kg

Question: And the ED50 [19]?
Answer: 0.006 mg/kg

Question: What about the ED50 [20] of the same compound?
Answer: 0.13 mg/kg

Question: What about the ED50 [21] of the same compound?
Answer: 39 mg/kg

Question: And the MIC [22]?
Answer: 0.8 µg/mL

Question: And the MIC ([23]; Enterobacter aerogenes strain 1)?
Answer: 0.1 µg/mL

Question: What about the MIC ([23]; Enterobacter aerogenes strain 2) of the same compound?
Answer: 0.1 µg/mL

Question: What about the MIC ([24]; Staphylococcus aureus strain 1) of the same compound?
Answer: 0.8 µg/mL

Question: What about the MIC ([24]; Staphylococcus aureus strain 2) of the same compound?
Answer: 1.6 µg/mL

Question: And the MIC ([24]; Staphylococcus aureus strain 3)?
Answer: 0.8 µg/mL

Question: What about the MIC ([24]; Staphylococcus aureus strain 4) of the same compound?
Answer: 0.8 µg/mL

Question: What about the MIC ([25]; Citrobacter freundii strain 1) of the same compound?
Answer: 1.6 µg/mL

Question: What about the MIC ([25]; Citrobacter freundii strain 2) of the same compound?
Answer: 0.05 µg/mL
